Measured values from US8329705B2, “Substituted triazolo-pyrazine compounds” (ArQule, Inc., priority 2009, dated 2012).

The compounds below were run against T1, FGFR2 (N549H) (Homo sapiens, UniProt P21802, N549H) (assay: FGFR2 kinase activity assay (fluorescent ELISA)). Conditions: 30 μM compound.
T1 construct: purchased Millipore 14-742
Assay type: biochemical
Method: A fluorescent ELISA assay was developed to identify and characterize inhibitors of FGFR2 kinase. This heterogeneous assay utilized a biotinylated peptide with a tyrosine motif as a substrate and an anti-phospho-tyrosine antibody to measure phosphorylation of the substrate. The reaction was initiated by adding a test compound, 37 uM Pyk2 substrate (Midwest Biotech, cat. #MBT2383), 12.5 uM ATP (Roche, cat. #11 140 965 001), and 0.5 uM FGFR2 enzyme (Millipore, cat. #14-742) sequentially to a non-binding polypropylene V-well plate. All reagents were in assay buffer consisting of: 50 mM Tris-HCL, 0.02 mg/mL BSA, 10 mM MgCl2, 0.1 mM Na3VO4, 1 mM EGTA, […], 0.01% NP-40, 2 mM DTT, 10% Glycerol. The reaction was incubated for 60 minutes. As the reaction proceeded, FGFR2 phosphorylated tyrosines in the peptide. The reaction mixture was then moved to a blocked streptavidin coated Nunc Maxisorb plate (coated with 100 ng streptavidin from Pierce (cat #15-124) per well) allowing for the capture of the biotinylated peptide. Peptide was captured for 30 minutes at room temperature, the phosphorylation of peptide continues during this phase. The reaction was stopped by washing the Streptavidin plate 6 times with TBST. Phosphorylated peptide was detected by adding anti-phospho tyrosine antibody (purchased from Cell Signaling, cat. #9411, diluted 1:3000), unbound antibody was removed by washing 6 times with TBST. Secondary detection was performed using Alkaline Phosphatase tagged goat anti-mouse antibody (purchased from Pierce, cat. #31320, diluted 1:4000) for one hour. Unbound secondary antibody was removed by washing 6 times with TBST.
The fluorescent readout was initiated by the addition of Promega Attophos substrate (purchased from Promega; Kit catalog number: S1000, dilution=6 mg/10 mL), which when dephosphorylated by Alkaline phosphatase emitted a fluorescent signal of […] when excited by a signal […]. This reading was done on the Perkin Elmer Envision system. […] The signal was directly proportional to the activity of FGFR2 and compound inhibition of FGFR2 was monitored by a decrease in signal.

T1 sequence (P21802 22-821 N549H): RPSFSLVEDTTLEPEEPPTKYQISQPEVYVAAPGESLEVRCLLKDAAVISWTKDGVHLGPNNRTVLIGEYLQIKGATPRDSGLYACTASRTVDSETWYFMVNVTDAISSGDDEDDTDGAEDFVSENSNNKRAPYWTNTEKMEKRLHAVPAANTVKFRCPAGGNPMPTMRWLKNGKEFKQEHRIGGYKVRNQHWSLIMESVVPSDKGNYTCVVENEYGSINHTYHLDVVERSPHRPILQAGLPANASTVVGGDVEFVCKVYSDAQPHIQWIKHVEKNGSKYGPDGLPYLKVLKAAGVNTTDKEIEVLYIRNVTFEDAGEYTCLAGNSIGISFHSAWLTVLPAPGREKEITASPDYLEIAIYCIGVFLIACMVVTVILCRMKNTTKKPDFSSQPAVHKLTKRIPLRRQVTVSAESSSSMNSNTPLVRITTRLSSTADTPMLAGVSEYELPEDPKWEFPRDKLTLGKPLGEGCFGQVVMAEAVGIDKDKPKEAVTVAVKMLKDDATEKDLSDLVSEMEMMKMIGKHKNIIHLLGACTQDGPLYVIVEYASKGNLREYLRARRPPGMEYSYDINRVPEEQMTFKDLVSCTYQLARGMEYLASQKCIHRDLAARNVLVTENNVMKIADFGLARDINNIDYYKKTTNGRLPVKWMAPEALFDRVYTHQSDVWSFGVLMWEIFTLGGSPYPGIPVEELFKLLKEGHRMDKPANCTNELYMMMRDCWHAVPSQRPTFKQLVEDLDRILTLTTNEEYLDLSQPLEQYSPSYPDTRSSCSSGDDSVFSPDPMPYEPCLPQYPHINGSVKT

| inhibition at 30 µM | Compound |
| --- | --- |
| 55.5% | COc1ccc(Cl)cc1Nc1nccn2c(NC(=O)OC(C)C)nnc12 [Compound 7, isopropyl {8-[(5-chloro-2-methoxyphenyl)amino][1,2,4]triazolo[4,3-a]pyrazin-3-yl}carbamate] |
| 50.5% | CC(C)OC(=O)Nc1nnc2c(Nc3ccccc3Cl)nccn12 [Compound 13, isopropyl {8-[(2-chlorophenyl)amino][1,2,4]triazolo[4,3-a]pyrazin-3-yl}carbamate] |
| 82% | Cc1ccccc1Nc1nccn2c(NC(=O)OC(C)C)nnc12 [Compound 14, isopropyl {8-[(2-methylphenyl)amino][1,2,4]triazolo[4,3-a]pyrazin-3-yl}carbamate] |
| 68.8% | CC(C)OC(=O)Nc1nnc2c(NCc3ccc(C(F)(F)F)cc3)nccn12 [Compound 17, isopropyl (8-{[4-(trifluoromethyl)benzyl]amino}[1,2,4]triazolo[4,3-a]pyrazin-3-yl)carbamate] |
| 55.2% | Cc1cccc(CNc2nccn3c(NC(=O)OC(C)C)nnc23)c1 [Compound 19, isopropyl {8-[(3-methylbenzyl)amino][1,2,4]triazolo[4,3-a]pyrazin-3-yl}carbamate] |
| 50.9% | COc1ccc(C)cc1Nc1nccn2c(NC(=O)OC(C)C)nnc12 [Compound 23, isopropyl {8-[(2-methoxy-5-methylphenyl)amino][1,2,4]triazolo[4,3-a]pyrazin-3-yl}carbamate] |
| 65.3% | CC(C)OC(=O)Nc1nnc2c(NCc3cccc(Cl)c3)nccn12 [Compound 24, isopropyl {8-[(3-chlorobenzyl)amino][1,2,4]triazolo[4,3-a]pyrazin-3-yl}carbamate] |
| 51.6% | CC(C)OC(=O)Nc1nnc2c(NCCc3ccc(F)cc3)nccn12 [Compound 28, isopropyl (8-{[2-(4-fluorophenyl)ethyl]amino}[1,2,4]triazolo[4,3-a]pyrazin-3-yl)carbamate] |
| 56.3% | CC(C)OC(=O)Nc1nnc2c(N(C)Cc3ccccc3)nccn12 [Compound 30, isopropyl {8-[benzyl(methyl)amino][1,2,4]triazolo[4,3-a]pyrazin-3-yl}carbamate] |
| 96.5% | COc1cc(CCNc2nccn3c(NC(=O)OC(C)C)nnc23)cc(OC)c1 [Compound 31, isopropyl (8-{[2-(3,5-dimethoxyphenyl)ethyl]amino}[1,2,4]triazolo[4,3-a]pyrazin-3-yl)carbamate] |
| 68.7% | CC(C)OC(=O)Nc1nnc2c(Nc3ccc4c(c3)CCC4)nccn12 [Compound 34, isopropyl [8-(2,3-dihydro-1H-inden-5-ylamino)[1,2,4]triazolo[4,3-a]pyrazin-3-yl]carbamate] |
| 57% | COc1ccc(Nc2nccn3c(NC(=O)OC(C)C)nnc23)c(OC)c1 [Compound 35, isopropyl {8-[(2,4-dimethoxyphenyl)amino][1,2,4]triazolo[4,3-a]pyrazin-3-yl}carbamate] |
| 51.4% | CC(C)OC(=O)Nc1nnc2c(NCCc3ccc(Oc4ccccc4)cc3)nccn12 [Compound 36, isopropyl (8-{[2-(4-phenoxyphenyl)ethyl]amino}[1,2,4]triazolo[4,3-a]pyrazin-3-yl)carbamate] |
| 62.5% | COc1ccccc1N(C)c1nccn2c(NC(=O)OC(C)C)nnc12 [Compound 41, isopropyl {8-[(2-methoxyphenyl)(methyl)amino][1,2,4]triazolo[4,3-a]pyrazin-3-yl}carbamate] |
| 58.7% | Cc1cccc(CCNc2nccn3c(NC(=O)OC(C)C)nnc23)c1 [Compound 42, isopropyl (8-{[2-(3-methylphenyl)ethyl]amino}[1,2,4]triazolo[4,3-a]pyrazin-3-yl)carbamate] |
| 84.6% | COc1ccc(OC)c(Nc2nccn3c(NC(=O)OC(C)C)nnc23)c1 [Compound 46, isopropyl {8-[(2,5-dimethoxyphenyl)amino][1,2,4]triazolo[4,3-a]pyrazin-3-yl}carbamate] |
| 87% | CC(C)OC(=O)Nc1nnc2c(NCc3ccccc3C(F)(F)F)nccn12 [Compound 48, isopropyl (8-{[2-(trifluoromethyl)benzyl]amino}[1,2,4]triazolo[4,3-a]pyrazin-3-yl)carbamate] |
| 63.6% | CC(C)OC(=O)Nc1nnc2c(Nc3ccc(C(C)(C)C)cc3)nccn12 [Compound 50, isopropyl {8-[(4-tert-butylphenyl)amino][1,2,4]triazolo[4,3-a]pyrazin-3-yl}carbamate] |
| 64.7% | CC(C)OC(=O)Nc1nnc2c(Nc3nc4ccccc4[nH]3)nccn12 [Compound 56, isopropyl [8-(1H-benzimidazol-2-ylamino)[1,2,4]triazolo[4,3-a]pyrazin-3-yl]carbamate] |

| inhibition at 30 µM | Compound |
| --- | --- |
| 100% | CC(C)OC(=O)Nc1nnc2c(NCc3ccc(-c4ccccc4)cc3)nccn12 [Compound 61, isopropyl {8-[(biphenyl-4-ylmethyl)amino][1,2,4]triazolo[4,3-a]pyrazin-3-yl}carbamate] |
| 58.4% | CC(C)OC(=O)Nc1nnc2c(NCc3cc(C(F)(F)F)cc(C(F)(F)F)c3)nccn12 [Compound 66, isopropyl (8-{[3,5-bis(trifluoromethyl)benzyl]amino}[1,2,4]triazolo[4,3-a]pyrazin-3-yl)carbamate] |
| 119% | CC(C)OC(=O)Nc1nnc2c(Nc3cccc(Cl)c3)nccn12 [Compound 67, isopropyl {8-[(3-chlorophenyl)amino][1,2,4]triazolo[4,3-a]pyrazin-3-yl}carbamate] |
| 52.8% | Cc1ccc(N(C)c2nccn3c(NC(=O)OC(C)C)nnc23)cc1 [Compound 69, isopropyl {8-[methyl(4-methylphenyl)amino][1,2,4]triazolo[4,3-a]pyrazin-3-yl}carbamate] |
| 51% | CC(C)OC(=O)Nc1nnc2c(NCc3ccccc3Br)nccn12 [Compound 80, isopropyl {8-[(2-bromobenzyl)amino][1,2,4]triazolo[4,3-a]pyrazin-3-yl}carbamate] |
| 84% | CC(C)OC(=O)Nc1nnc2c(NCc3ccccc3F)nccn12 [Compound 84, isopropyl {8-[(2-fluorobenzyl)amino][1,2,4]triazolo[4,3-a]pyrazin-3-yl}carbamate] |
| 50.6% | Cc1cccc2c(CCNc3nccn4c(NC(=O)OC(C)C)nnc34)c[nH]c12 [Compound 85, isopropyl (8-{[2-(7-methyl-1H-indol-3-yl)ethyl]amino}[1,2,4]triazolo[4,3-a]pyrazin-3-yl)carbamate] |
| 57.7% | CC(C)OC(=O)Nc1nnc2c(N(C)c3ccc(Cl)cc3)nccn12 [Compound 87, isopropyl {8-[(4-chlorophenyl)(methyl)amino][1,2,4]triazolo[4,3-a]pyrazin-3-yl}carbamate] |
| 59.2% | Nc1nnc2c(NCc3ccccc3Br)nccn12 [Compound 92, N^8-(2-bromobenzyl)[1,2,4]triazolo[4,3-a]pyrazine-3,8-diamine] |
| 60.7% | Nc1nnc2c(Nc3cccc(F)c3)nccn12 [Compound 99, N^8-(3-fluorophenyl)[1,2,4]triazolo[4,3-a]pyrazine-3,8-diamine] |
| 66.5% | Nc1nnc2c(NCc3ccc(C(F)(F)F)cc3)nccn12 [Compound 100, N^8-[4-(trifluoromethyl)benzyl][1,2,4]triazolo[4,3-a]pyrazine-3,8-diamine] |
| 86.1% | Cc1ccc(N(C)c2nccn3c(N)nnc23)cc1 [Compound 107, N^8-methyl-N^8-(4-methylphenyl)[1,2,4]triazolo[4,3-a]pyrazine-3,8-diamine] |
| 50% | CN(C)c1ccc(Nc2nccn3c(N)nnc23)cc1 [Compound 116, N^8-[4-(dimethylamino)phenyl][1,2,4]triazolo[4,3-a]pyrazine-3,8-diamine] |
| 50.4% | Cc1cccc(Nc2nccn3c(N)nnc23)c1 [Compound 118, N^8-(3-methylphenyl)[1,2,4]triazolo[4,3-a]pyrazine-3,8-diamine] |
| 65.7% | Nc1nnc2c(Nc3ccccc3F)nccn12 [Compound 121, N^8-(2-fluorophenyl)[1,2,4]triazolo[4,3-a]pyrazine-3,8-diamine] |
| 73.5% | COc1ccc(C)cc1Nc1nccn2c(N)nnc12 [Compound 124, N^8-(2-methoxy-5-methylphenyl)[1,2,4]triazolo[4,3-a]pyrazine-3,8-diamine] |
| 65.7% | Cc1cccc(CNc2nccn3c(N)nnc23)c1C [Compound 131, N^8-(2,3-dimethylbenzyl)[1,2,4]triazolo[4,3-a]pyrazine-3,8-diamine] |
| 96.3% | CCc1ccc(CNc2nccn3c(N)nnc23)cc1 [Compound 139, N^8-(4-ethylbenzyl)[1,2,4]triazolo[4,3-a]pyrazine-3,8-diamine] |
